{"source": "paper PMC3783652", "about": "(ACS chemical biology, 2013)", "key": {"[1]": {"biological_target": "CXCL12WT self-association", "settings": "in 100 mM sodium phosphate; cited from earlier work"}, "CXCL12WT": {"biological_target": "CXCL12WT (Homo sapiens, UniProt P48061)", "settings": "ΔG = −RT ln Kd @ 298 K, calculated from Veldkamp et al.; cited from earlier work"}, "CXCL12_1": {"biological_target": "CXCL12_1 (Homo sapiens, UniProt P48061, I79C/L76C)", "experiment": "2D 1H-15N HSQC NMR titration of CXCR4 peptides into CXCL12_1", "format": "binding", "settings": "ΔG = −RT ln Kd @ 298 K"}, "CXCL12_2": {"biological_target": "CXCL12_2 (Homo sapiens, UniProt P48061, A86C/L57C)", "experiment": "2D 1H-15N HSQC NMR titration of CXCR4 peptides into CXCL12_2", "format": "binding", "settings": "ΔG = −RT ln Kd @ 298 K"}}, "note": "Marks after values point to notes of the source that are not given here. No end group written: not given here.", "data": [{"substance": "CXCL12WT: wild type chemokine CXCL12 (stromal cell-derived factor-1/SDF-1)", "values": [{"measurement": "Kd of self-association", "setting": "[1]", "value": 140, "unit": "µM"}]}, {"substance": "GMMEGISIYTSDNYTEEMGSGDYDSMKEPCFREENANFNK [CXCR4_1–38]", "values": [{"measurement": "ΔG", "setting": "CXCL12WT", "value": "−7.29 ^* kcal mol^−1"}, {"measurement": "ΔG", "setting": "CXCL12_1", "value": -7.43, "unit": "kcal/mol"}, {"measurement": "ΔG", "setting": "CXCL12_2", "value": -8.24, "unit": "kcal/mol"}]}]}
